Legend:
Test in all cases: relative viability (nuclei count vs DMSO), 5 days (fraction); higher = more cells survive
VE-821 + Pictilisib = compound: CS(=O)(=O)c1ccc(-c2cnc(N)c(C(=O)Nc3ccccc3)n2)cc1 [VE-821] + CS(=O)(=O)N1CCN(Cc2cc3nc(-c4cccc5[nH]ncc45)nc(N4CCOCC4)c3s2)CC1 [Pictilisib] (partner 1 µM)
In short: (§1)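 Dosing by pin tool came one day after lung cancer cell lines were seeded in 1536-well plates, using either one drug or a fixed anchor-drug dose plus five library-drug doses (not always all listed) in √10 steps. After 5 days, nuclei were counted on 4× images. Relative viability is treated-well nuclei count divided by vehicle-well nuclei count, and values are medians of duplicate plates.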

VE-821 + Luminespib = compound: CS(=O)(=O)c1ccc(-c2cnc(N)c(C(=O)Nc3ccccc3)n2)cc1 [VE-821] + CCNC(=O)c1noc(-c2cc(C(C)C)c(O)cc2O)c1-c1ccc(CN2CCOCC2)cc1 [Luminespib] (partner 0.01 µM)
In short: as §1

Ruxolitinib + Trametinib = compound: N#CC[C@H](C1CCCC1)n1cc(-c2ncnc3[nH]ccc23)cn1 [Ruxolitinib] + CC(=O)Nc1cccc(-n2c(=O)n(C3CC3)c(=O)c3c(Nc4ccc(I)cc4F)n(C)c(=O)c(C)c32)c1 [Trametinib] (partner 0.02 µM)
In short: as §1

VE-821 + Bortezomib = compound: CS(=O)(=O)c1ccc(-c2cnc(N)c(C(=O)Nc3ccccc3)n2)cc1 [VE-821] + CC(C)C[C@H](NC(=O)[C@H](Cc1ccccc1)NC(=O)c1cnccn1)B(O)O [Bortezomib] (partner 0.002 µM)
In short: as §1

LOU-NH91
relative viability (VE-821 + Pictilisib; first compound 0.08 µM): 0.527
relative viability (VE-821 + Pictilisib; first compound 0.253 µM): 0.506
relative viability (VE-821 + Pictilisib; first compound 0.8 µM): 0.496
relative viability (VE-821 + Pictilisib; first compound 2.53 µM): 0.524
relative viability (VE-821 + Pictilisib; first compound 8 µM): 0.525
relative viability (VE-821 + Luminespib; first compound 0.08 µM): 0.431
relative viability (VE-821 + Luminespib; first compound 0.253 µM): 0.366
relative viability (VE-821 + Luminespib; first compound 0.8 µM): 0.319
relative viability (VE-821 + Luminespib; first compound 2.53 µM): 0.345
relative viability (VE-821 + Luminespib; first compound 8 µM): 0.279
relative viability (Ruxolitinib + Trametinib; first compound 0.08 µM): 0.731
relative viability (Ruxolitinib + Trametinib; first compound 0.253 µM): 0.702
relative viability (Ruxolitinib + Trametinib; first compound 0.8 µM): 0.77
relative viability (Ruxolitinib + Trametinib; first compound 2.53 µM): 0.725
relative viability (Ruxolitinib + Trametinib; first compound 8 µM): 0.743
relative viability (VE-821 + Bortezomib; first compound 0.08 µM): 0.529
relative viability (VE-821 + Bortezomib; first compound 0.253 µM): 0.906
relative viability (VE-821 + Bortezomib; first compound 0.8 µM): 0.527
relative viability (VE-821 + Bortezomib; first compound 2.53 µM): 0.555
relative viability (VE-821 + Bortezomib; first compound 8 µM): 0.377

RERF-LC-KJ
relative viability (VE-821 + Pictilisib; first compound 0.08 µM): 0.496
relative viability (VE-821 + Pictilisib; first compound 0.253 µM): 0.498
relative viability (VE-821 + Pictilisib; first compound 0.8 µM): 0.463
relative viability (VE-821 + Pictilisib; first compound 2.53 µM): 0.547
relative viability (VE-821 + Pictilisib; first compound 8 µM): 0.482
relative viability (VE-821 + Luminespib; first compound 0.08 µM): 1.31
relative viability (VE-821 + Luminespib; first compound 0.253 µM): 1.06
relative viability (VE-821 + Luminespib; first compound 0.8 µM): 1.06
relative viability (VE-821 + Luminespib; first compound 2.53 µM): 1.18
relative viability (VE-821 + Luminespib; first compound 8 µM): 0.931
relative viability (Ruxolitinib + Trametinib; first compound 0.08 µM): 0.797
relative viability (Ruxolitinib + Trametinib; first compound 0.253 µM): 0.978
relative viability (Ruxolitinib + Trametinib; first compound 0.8 µM): 0.939
relative viability (Ruxolitinib + Trametinib; first compound 2.53 µM): 0.834
relative viability (Ruxolitinib + Trametinib; first compound 8 µM): 0.906
relative viability (VE-821 + Bortezomib; first compound 0.08 µM): 1.15
relative viability (VE-821 + Bortezomib; first compound 0.253 µM): 1.13
relative viability (VE-821 + Bortezomib; first compound 0.8 µM): 0.957
relative viability (VE-821 + Bortezomib; first compound 2.53 µM): 1.03
relative viability (VE-821 + Bortezomib; first compound 8 µM): 0.82

NCI-H1975
relative viability (VE-821 + Pictilisib; first compound 0.08 µM): 0.312
relative viability (VE-821 + Pictilisib; first compound 0.253 µM): 0.216
relative viability (VE-821 + Pictilisib; first compound 0.8 µM): 0.298
relative viability (VE-821 + Pictilisib; first compound 2.53 µM): 0.267
relative viability (VE-821 + Pictilisib; first compound 8 µM): 0.26
relative viability (VE-821 + Luminespib; first compound 0.08 µM): 0.213
relative viability (VE-821 + Luminespib; first compound 0.253 µM): 0.197
relative viability (VE-821 + Luminespib; first compound 0.8 µM): 0.26
relative viability (VE-821 + Luminespib; first compound 2.53 µM): 0.193
relative viability (VE-821 + Luminespib; first compound 8 µM): 0.193
relative viability (Ruxolitinib + Trametinib; first compound 0.08 µM): 0.277
relative viability (Ruxolitinib + Trametinib; first compound 0.253 µM): 0.432
relative viability (Ruxolitinib + Trametinib; first compound 0.8 µM): 0.412
relative viability (Ruxolitinib + Trametinib; first compound 2.53 µM): 0.269
relative viability (Ruxolitinib + Trametinib; first compound 8 µM): 0.152
relative viability (VE-821 + Bortezomib; first compound 0.08 µM): 0.482
relative viability (VE-821 + Bortezomib; first compound 0.253 µM): 0.333
relative viability (VE-821 + Bortezomib; first compound 0.8 µM): 0.381
relative viability (VE-821 + Bortezomib; first compound 2.53 µM): 0.393
relative viability (VE-821 + Bortezomib; first compound 8 µM): 0.347

NCI-H661
relative viability (VE-821 + Pictilisib; first compound 0.08 µM): 0.379
relative viability (VE-821 + Pictilisib; first compound 0.253 µM): 0.393
relative viability (VE-821 + Pictilisib; first compound 0.8 µM): 0.406
relative viability (VE-821 + Pictilisib; first compound 2.53 µM): 0.39
relative viability (VE-821 + Pictilisib; first compound 8 µM): 0.336
relative viability (VE-821 + Luminespib; first compound 0.08 µM): 0.88
relative viability (VE-821 + Luminespib; first compound 0.253 µM): 0.944
relative viability (VE-821 + Luminespib; first compound 0.8 µM): 0.958
relative viability (VE-821 + Luminespib; first compound 2.53 µM): 0.914
relative viability (VE-821 + Luminespib; first compound 8 µM): 0.803
relative viability (Ruxolitinib + Trametinib; first compound 0.08 µM): 0.661
relative viability (Ruxolitinib + Trametinib; first compound 0.253 µM): 0.619
relative viability (Ruxolitinib + Trametinib; first compound 0.8 µM): 0.685
relative viability (Ruxolitinib + Trametinib; first compound 2.53 µM): 0.432
relative viability (Ruxolitinib + Trametinib; first compound 8 µM): 0.52
relative viability (VE-821 + Bortezomib; first compound 0.08 µM): 0.885
relative viability (VE-821 + Bortezomib; first compound 0.253 µM): 0.953
relative viability (VE-821 + Bortezomib; first compound 0.8 µM): 0.767
relative viability (VE-821 + Bortezomib; first compound 2.53 µM): 0.895
relative viability (VE-821 + Bortezomib; first compound 8 µM): 0.72

HOP-62
relative viability (VE-821 + Pictilisib; first compound 0.08 µM): 0.689
relative viability (VE-821 + Pictilisib; first compound 0.253 µM): 0.785
relative viability (VE-821 + Pictilisib; first compound 0.8 µM): 0.807
relative viability (VE-821 + Pictilisib; first compound 2.53 µM): 0.944
relative viability (VE-821 + Pictilisib; first compound 8 µM): 0.516
relative viability (VE-821 + Luminespib; first compound 0.08 µM): 0.966
relative viability (VE-821 + Luminespib; first compound 0.253 µM): 0.822
relative viability (VE-821 + Luminespib; first compound 0.8 µM): 0.981
relative viability (VE-821 + Luminespib; first compound 2.53 µM): 0.694
relative viability (VE-821 + Luminespib; first compound 8 µM): 0.596
relative viability (Ruxolitinib + Trametinib; first compound 0.08 µM): 0.414
relative viability (Ruxolitinib + Trametinib; first compound 0.253 µM): 0.398
relative viability (Ruxolitinib + Trametinib; first compound 0.8 µM): 0.476
relative viability (Ruxolitinib + Trametinib; first compound 2.53 µM): 0.188
relative viability (Ruxolitinib + Trametinib; first compound 8 µM): 0.37
relative viability (VE-821 + Bortezomib; first compound 0.08 µM): 0.726
relative viability (VE-821 + Bortezomib; first compound 0.253 µM): 0.389
relative viability (VE-821 + Bortezomib; first compound 0.8 µM): 0.889
relative viability (VE-821 + Bortezomib; first compound 2.53 µM): 0.838
relative viability (VE-821 + Bortezomib; first compound 8 µM): 0.718

HCC-15
relative viability (VE-821 + Pictilisib; first compound 0.08 µM): 0.947
relative viability (VE-821 + Pictilisib; first compound 0.253 µM): 0.757
relative viability (VE-821 + Pictilisib; first compound 0.8 µM): 0.781
relative viability (VE-821 + Pictilisib; first compound 2.53 µM): 0.92
relative viability (VE-821 + Pictilisib; first compound 8 µM): 0.749
relative viability (VE-821 + Luminespib; first compound 0.08 µM): 0.37
relative viability (VE-821 + Luminespib; first compound 0.253 µM): 0.175
relative viability (VE-821 + Luminespib; first compound 0.8 µM): 0.517
relative viability (VE-821 + Luminespib; first compound 2.53 µM): 0.422
relative viability (VE-821 + Luminespib; first compound 8 µM): 0.315
relative viability (Ruxolitinib + Trametinib; first compound 0.08 µM): 0.348
relative viability (Ruxolitinib + Trametinib; first compound 0.253 µM): 0.382
relative viability (Ruxolitinib + Trametinib; first compound 0.8 µM): 0.395
relative viability (Ruxolitinib + Trametinib; first compound 2.53 µM): 0.322
relative viability (Ruxolitinib + Trametinib; first compound 8 µM): 0.355
relative viability (VE-821 + Bortezomib; first compound 0.08 µM): 1.22
relative viability (VE-821 + Bortezomib; first compound 0.253 µM): 1.02
relative viability (VE-821 + Bortezomib; first compound 0.8 µM): 1.02
relative viability (VE-821 + Bortezomib; first compound 2.53 µM): 1.13
relative viability (VE-821 + Bortezomib; first compound 8 µM): 1.1

A-427
relative viability (VE-821 + Pictilisib; first compound 0.08 µM): 0.763
relative viability (VE-821 + Pictilisib; first compound 0.253 µM): 0.538
relative viability (VE-821 + Pictilisib; first compound 0.8 µM): 0.54
relative viability (VE-821 + Pictilisib; first compound 2.53 µM): 0.684
relative viability (VE-821 + Pictilisib; first compound 8 µM): 0.389
relative viability (VE-821 + Luminespib; first compound 0.08 µM): 1.08
relative viability (VE-821 + Luminespib; first compound 0.253 µM): 1
relative viability (VE-821 + Luminespib; first compound 0.8 µM): 0.69
relative viability (VE-821 + Luminespib; first compound 2.53 µM): 0.745
relative viability (VE-821 + Luminespib; first compound 8 µM): 0.3
relative viability (Ruxolitinib + Trametinib; first compound 0.08 µM): 0.808
relative viability (Ruxolitinib + Trametinib; first compound 0.253 µM): 0.757
relative viability (Ruxolitinib + Trametinib; first compound 0.8 µM): 0.96
relative viability (Ruxolitinib + Trametinib; first compound 2.53 µM): 0.636
relative viability (Ruxolitinib + Trametinib; first compound 8 µM): 0.728
relative viability (VE-821 + Bortezomib; first compound 0.08 µM): 0.964
relative viability (VE-821 + Bortezomib; first compound 0.253 µM): 0.937
relative viability (VE-821 + Bortezomib; first compound 0.8 µM): 0.906
relative viability (VE-821 + Bortezomib; first compound 2.53 µM): 0.93
relative viability (VE-821 + Bortezomib; first compound 8 µM): 0.695

— the supplement of paper PMC10307832
